# Measured values published in publication PMC3362725, “An open-label, phase 1 study evaluating safety, tolerability, and pharmacokinetics of linifanib (ABT-869) in Japanese patients with solid tumors” (Cancer Chemotherapy and Pharmacology, 2012).
# Read-outs that look alike come from different tables or passages of the source.
# Tests used:
# [1] = parameters: method as in PMID 19720910; settings: non-Japanese Asian patients, 0.10–0.30 mg/kg single dose, mean ± SD, N 31; calculated from ref 14; cited from earlier work
# [2] = parameters: method as in PMID 19720910; settings: cited from earlier work
# [3] = parameters: method as in earlier work; settings: Caucasian patients, 0.25 mg/kg single dose, mean ± SD, N 13; cited from earlier work
# PlGF = experiment: Plasma PlGF biomarker (Abbott Architect kits); format: in vivo, human (Japanese patients with solid tumors)
# Procedure: Plasma for biomarker analysis was collected before linifanib administration on C1D1, C1D15, C2D1, and at the final visit. Concentration of PlGF was determined using Abbott Architect® kits. The relationship of PlGF levels to outcomes was assessed post hoc. To assess the relationship between PlGF induction and toxicity, patients were grouped into those requiring and not requiring dose interruption during the first 30 days of therapy. Median PlGF increase from baseline to C1D15 was compared as a function of toxicity group. To assess the relationship between PlGF induction and efficacy, patients were segregated into those with progressive disease (PD; N = 6) or stable disease (SD; N = 10) at C6, and PlGF increase from baseline to C1D15 was compared.
structure (smiles),measurement,setting,value
"Cc1ccc(F)c(NC(=O)Nc2ccc(-c3cccc4[nH]nc(N)c34)cc2)c1 [linifanib, N-(4-(3-amino-1H-indazol-4-yl)phenyl)-N’-(2-fluoro-5-methylphenyl)urea]",DN AUC24,[1],0.25 ± 0.10 µg·h/mL/mg
same,DN C max,[1],0.020 ± 0.008 µg/mL/mg
same,T max,[1],2.94 ± 1.27 h
same,patients with Grade 3 hypertension,"[2]; non-Japanese Asian patients, recommended phase 2 dose",8%
same,recommended phase 2 dose,[2]; prior phase 1 study in non-Japanese,0.25 mg/kg
same,DN AUC24,[3],0.21 ± 0.04 µg·h/mL/mg
same,DN C max,[3],0.018 ± 0.005 µg/mL/mg
same,T max,[3],1.77 ± 0.44 h
same,induction of PlGF on C1D15 and C2D1,PlGF; 0.05–0.25 mg/kg once daily,dose-dependent
same,median (±SD) increase in PlGF from baseline to C1D15,PlGF; 11 patients with dose interruption in first 30 days,79.9 (±55.0) pg/mL
same,PlGF change from baseline to C1D15 as a function of response classification,"PlGF; PD (n = 6) versus SD (n = 10) at C6, p = 0.7",No statistically significant difference
same,median (±SD) increase in PlGF from baseline to C1D15,"PlGF; five patients without dose interruption in first 30 days, ±16.2",22.8 pg/mL
same,PlGF concentration at the final visit,PlGF; patients no longer on therapy,returned to near baseline levels
